In ChEMBL document CHEMBL2407065, “Discovery of 7-aminofuro[2,3-c]pyridine inhibitors of TAK1: optimization of kinase selectivity and pharmacokinetics” (Bioorg Med Chem Lett, 2013):

Legend:
[1] = Metabolic stability in human liver microsomes assessed as extraction ratio; format: ADME, Microsome; settings: read-out: ERH
[2] = Metabolic stability in mouse liver microsomes assessed as extraction ratio; format: ADME, Microsome; settings: read-out: ERH
[3] = molecular target: Vascular endothelial growth factor receptor 2 (Homo sapiens, UniProt P35968); assay: Inhibition of KDR autophosphorylation overexpressed in VEGF-stimulated human HEK293 cells; format: cell-based
[4] = molecular target: T1, Mitogen-activated protein kinase kinase kinase 7 (Homo sapiens, UniProt O43318); assay: Inhibition of TAK1 in human HCT116 cells assessed as inhibition of TNF-alpha-stimulated JNK phosphorylation; format: cell-based, HCT-116
T1 sequence (O43318 whole entry): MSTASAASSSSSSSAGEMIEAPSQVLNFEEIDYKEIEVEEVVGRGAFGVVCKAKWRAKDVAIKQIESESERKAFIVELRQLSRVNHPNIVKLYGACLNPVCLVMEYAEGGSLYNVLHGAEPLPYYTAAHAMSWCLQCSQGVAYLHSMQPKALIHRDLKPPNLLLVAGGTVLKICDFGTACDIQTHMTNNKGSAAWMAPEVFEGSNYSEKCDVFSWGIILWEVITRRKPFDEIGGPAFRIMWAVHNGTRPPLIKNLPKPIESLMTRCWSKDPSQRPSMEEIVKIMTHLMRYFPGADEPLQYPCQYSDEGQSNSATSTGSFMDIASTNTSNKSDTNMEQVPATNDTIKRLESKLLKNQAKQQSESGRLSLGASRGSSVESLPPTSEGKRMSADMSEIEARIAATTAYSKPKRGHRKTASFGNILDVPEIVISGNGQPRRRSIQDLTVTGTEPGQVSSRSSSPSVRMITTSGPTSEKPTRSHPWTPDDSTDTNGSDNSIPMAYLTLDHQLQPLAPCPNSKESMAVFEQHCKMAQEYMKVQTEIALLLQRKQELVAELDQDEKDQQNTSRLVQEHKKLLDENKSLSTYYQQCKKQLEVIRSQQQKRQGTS

Aurora kinase B = Aurora kinase B (Homo sapiens, UniProt Q96GD4); assay: Inhibition of aurora B kinase in human HT-29 cells assessed as inhibition of histone H3 S10 phosphorylation; format: cell-based
TAK1/TAB1 = TAK1/TAB1 (Homo sapiens, UniProt O43318); assay: Inhibition of TAK1-TAB1 (unknown origin) by alphascreen assay in presence of ATP; format: protein-complex assay
[5] = Oral bioavailability in mouse at 20 mg/kg; format: ADME, organism-based; settings: in vivo
[6] = AUC (0 to infinity) in mouse at 20 mg/kg, po; format: ADME, organism-based; set-up: time infinity, dose 20 mg/kg, route oral; settings: plasma
[7] = Volume of distribution at steady state in mouse at 2 mg/kg, iv; format: ADME, organism-based; set-up: dose 2 mg/kg, route intravenous; settings: in vivo, read-out: Vdss
[8] = Cmax in mouse at 20 mg/kg, po; format: ADME, organism-based; set-up: dose 20 mg/kg, route oral; settings: in vivo
[9] = AUC (0 to infinity) in mouse at 2 mg/kg, iv; format: ADME, organism-based; set-up: dose 2 mg/kg, route intravenous, time infinity; settings: plasma
[10] = Half life in mouse at 2 mg/kg, iv; format: ADME, organism-based; set-up: dose 2 mg/kg, route intravenous; settings: in vivo
[11] = Clearance in mouse at 2 mg/kg, iv; format: ADME, organism-based; set-up: dose 2 mg/kg, route intravenous; settings: in vivo
[12] = Drug metabolism in mouse liver microsomes assessed as M+176 formation; format: ADME, Microsome
Liver microsomes = assay: Drug metabolism in human liver microsomes assessed as M+176 formation; format: ADME, Microsome
[13] = AUC (0 to last) in mouse at 20 mg/kg, po; format: ADME, organism-based; set-up: time 0 - last, dose 20 mg/kg, route oral; settings: plasma
[14] = Oral bioavailability in mouse at 100 mg/kg; format: ADME, organism-based; settings: in vivo
[15] = AUC (0 to infinity) in mouse at 100 mg/kg, po; format: ADME, organism-based; set-up: time infinity, dose 100 mg/kg, route oral; settings: plasma
[16] = Cmax in mouse at 100 mg/kg, po; format: ADME, organism-based; set-up: dose 100 mg/kg, route oral; settings: in vivo
[17] = molecular target: T1, Mitogen-activated protein kinase kinase kinase 7; assay: Inhibition of TAK1 in human TOV21G cells assessed as inhibition of JNK phosphorylation
[18] = Antitumor activity against human TOV21G cells xenografted in CD-1 nude mouse assessed as tumor growth inhibition at 100 mg/kg, sc qd administered for 14 days measured on day 15 relative to vehicle-treated control; format: functional; settings: route subcutaneous, read-out: TGI
[19] = Tmax in mouse at 20 mg/kg, po; format: ADME, organism-based; set-up: dose 20 mg/kg, route oral; settings: in vivo

Vascular endothelial growth factor receptor 2, sequence (P35968 whole entry): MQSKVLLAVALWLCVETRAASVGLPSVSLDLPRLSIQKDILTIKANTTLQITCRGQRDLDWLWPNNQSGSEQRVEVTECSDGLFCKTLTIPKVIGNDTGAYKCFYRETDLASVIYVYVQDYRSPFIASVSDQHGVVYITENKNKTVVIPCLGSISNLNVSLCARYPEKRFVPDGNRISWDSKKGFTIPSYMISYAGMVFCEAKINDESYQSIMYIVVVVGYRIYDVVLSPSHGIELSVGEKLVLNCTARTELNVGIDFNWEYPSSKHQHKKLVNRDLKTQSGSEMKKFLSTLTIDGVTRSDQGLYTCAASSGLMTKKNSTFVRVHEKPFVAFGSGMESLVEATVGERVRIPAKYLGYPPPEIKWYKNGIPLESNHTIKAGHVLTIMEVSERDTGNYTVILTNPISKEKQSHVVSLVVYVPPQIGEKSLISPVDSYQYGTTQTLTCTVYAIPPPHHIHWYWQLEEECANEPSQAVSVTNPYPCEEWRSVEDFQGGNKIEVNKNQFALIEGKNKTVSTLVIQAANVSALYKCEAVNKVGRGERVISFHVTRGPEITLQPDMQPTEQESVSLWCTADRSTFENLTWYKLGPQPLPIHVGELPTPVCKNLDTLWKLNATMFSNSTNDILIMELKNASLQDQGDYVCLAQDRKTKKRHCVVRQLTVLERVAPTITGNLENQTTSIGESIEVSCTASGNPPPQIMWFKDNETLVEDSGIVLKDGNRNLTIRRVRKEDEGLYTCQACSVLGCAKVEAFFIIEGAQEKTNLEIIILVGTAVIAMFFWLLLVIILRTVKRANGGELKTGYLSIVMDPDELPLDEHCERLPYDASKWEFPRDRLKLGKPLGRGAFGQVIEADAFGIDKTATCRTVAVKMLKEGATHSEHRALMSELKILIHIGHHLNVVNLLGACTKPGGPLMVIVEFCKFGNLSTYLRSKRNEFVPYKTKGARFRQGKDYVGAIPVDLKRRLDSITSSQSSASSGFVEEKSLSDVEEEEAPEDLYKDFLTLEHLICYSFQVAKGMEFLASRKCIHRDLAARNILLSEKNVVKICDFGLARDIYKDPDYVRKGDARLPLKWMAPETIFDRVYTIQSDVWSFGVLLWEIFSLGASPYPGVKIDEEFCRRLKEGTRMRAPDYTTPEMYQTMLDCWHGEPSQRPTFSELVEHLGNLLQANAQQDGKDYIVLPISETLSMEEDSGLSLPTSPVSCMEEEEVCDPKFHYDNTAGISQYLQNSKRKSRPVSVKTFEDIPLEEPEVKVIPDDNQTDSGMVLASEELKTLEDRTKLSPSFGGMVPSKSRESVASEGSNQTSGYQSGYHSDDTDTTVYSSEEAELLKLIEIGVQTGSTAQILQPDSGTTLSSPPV
TAK1/TAB1, sequence (Q15750 whole entry, one chain of several): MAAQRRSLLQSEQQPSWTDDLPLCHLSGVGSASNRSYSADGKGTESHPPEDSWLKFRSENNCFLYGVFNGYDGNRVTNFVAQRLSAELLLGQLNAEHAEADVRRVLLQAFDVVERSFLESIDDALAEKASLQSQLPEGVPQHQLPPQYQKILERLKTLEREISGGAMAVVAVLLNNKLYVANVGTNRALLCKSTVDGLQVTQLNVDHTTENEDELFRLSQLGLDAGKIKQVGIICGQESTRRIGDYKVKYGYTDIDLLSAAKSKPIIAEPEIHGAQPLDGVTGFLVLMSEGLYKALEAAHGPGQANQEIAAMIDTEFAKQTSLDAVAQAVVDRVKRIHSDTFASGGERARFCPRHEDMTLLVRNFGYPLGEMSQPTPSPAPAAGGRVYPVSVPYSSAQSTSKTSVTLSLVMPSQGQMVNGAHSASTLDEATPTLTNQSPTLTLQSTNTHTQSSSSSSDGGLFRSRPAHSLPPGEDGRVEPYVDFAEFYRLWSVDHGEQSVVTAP
Aurora kinase B, sequence (Q96GD4 whole entry): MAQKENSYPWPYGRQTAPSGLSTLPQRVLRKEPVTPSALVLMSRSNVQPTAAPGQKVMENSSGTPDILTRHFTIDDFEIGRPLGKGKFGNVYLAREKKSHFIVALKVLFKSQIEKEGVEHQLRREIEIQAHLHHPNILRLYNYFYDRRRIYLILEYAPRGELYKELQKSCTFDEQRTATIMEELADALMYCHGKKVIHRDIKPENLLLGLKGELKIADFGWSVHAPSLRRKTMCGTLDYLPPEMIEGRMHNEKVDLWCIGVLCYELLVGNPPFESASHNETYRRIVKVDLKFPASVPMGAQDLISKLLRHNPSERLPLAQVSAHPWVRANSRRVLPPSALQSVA

Row | SMILES | IC50 [3] | IC50 [4] | IC50 (Aurora kinase B) | IC50 (TAK1/TAB1) | further results
1 | Nc1ncc(-c2cnn([C@H]3CC[C@H](O)CC3)c2)c2c(CF)c(-c3cccc4nnsc34)oc12 | 18300 nM | 45 nM | 1500 nM | 17 nM | hepatic extraction ratio [1]: 0.49; hepatic extraction ratio [2]: 0.43
2 | Cc1ccc(-c2cnc(N)c3oc(-c4csc5cnccc45)cc23)o1 |  |  |  | 2100 nM | 
3 | Nc1ncc(-c2cnn([C@H]3CC[C@H](O)CC3)c2)c2c(C(F)F)c(-c3cccc4nnsc34)oc12 | > 20000 nM | 20 nM | 1700 nM | 14 nM | hepatic extraction ratio [1]: 0.48; hepatic extraction ratio [2]: 0.39; bioavailability [5]: 98%; AUC(0-inf) [6]: 33700 ng·h/mL; Vd [7]: 1 L/kg; Cmax [8]: 18.6 µM; AUC(0-inf) [9]: 3440 ng·h/mL; half-life [10]: 1.8 h; clearance [11]: 10 mL/min/kg
4 | Nc1ncc(-c2ccccc2)c2cc(-c3csc4cnccc34)oc12 |  |  |  | 3200 nM | 
5 | Nc1ncc(-c2cnn([C@H]3CC[C@H](O)CC3)c2)c2cc(-c3cccc4cnsc34)oc12 |  |  |  |  | bioavailability [5]: 27%; AUC(0-inf) [6]: 821 ng·h/mL; Vd [7]: 12 L/kg; Cmax [8]: 1.1 µM; AUC(0-inf) [9]: 299 ng·h/mL; half-life [10]: 3.3 h; clearance [11]: 111 mL/min/kg
6 | Cn1ccc(-c2cnc(N)c3oc(-c4csc5cnccc45)cc23)c1 |  |  |  | 4900 nM | 
7 | Cn1cc(-c2cnc(N)c3oc(-c4csc5cnccc45)cc23)cn1 | 3400 nM | 190 nM | 3000 nM | 150 nM | 
8 | CC(=O)N1CCC(n2cc(-c3cnc(N)c4oc(-c5csc6cnccc56)cc34)cn2)CC1 |  |  |  |  | Drug metabolism [12]: Active; Drug metabolism (Liver microsomes): Active; AUC(0-t) [13]: 21 ng·h/mL; bioavailability [5]: 1%; Vd [7]: 2.5 L/kg; Cmax [8]: 0.03 µM; AUC(0-inf) [9]: 187 ng·h/mL; half-life [10]: 0.1 h; clearance [11]: 178 mL/min/kg
9 | Nc1ncc(C2=CCNCC2)c2cc(-c3csc4cnccc34)oc12 |  |  |  | 23600 nM | 
10 | Nc1ncc(-c2cnn([C@H]3CC[C@H](O)CC3)c2)c2c(Cl)c(-c3cccc4nnsc34)oc12 | > 20000 nM | 18 nM | 6500 nM |  | bioavailability [14]: 32%; AUC(0-inf) [15]: 26800 ng·h/mL; Cmax [16]: 7.1 µM; IC50 [17]: 28 nM; hepatic extraction ratio [1]: 0.4; hepatic extraction ratio [2]: 0.39; bioavailability [5]: 52%; AUC(0-inf) [6]: 8770 ng·h/mL; Vd [7]: 2.1 L/kg; Cmax [8]: 3.8 µM; AUC(0-inf) [9]: 1700 ng·h/mL; half-life [10]: 2.1 h; clearance [11]: 20 mL/min/kg; inhibition in vivo at 100 mg/kg [18]: 62%
11 | Cc1c(-c2cnc(N)c3oc(-c4csc5cnccc45)cc23)cnn1C | 19900 nM | 3000 nM | 17400 nM | 4100 nM | 
12 | Nc1ncc(-c2cnn([C@H]3CC[C@H](O)CC3)c2)c2cc(-c3cccc4nnsc34)oc12 | 650 nM | 15 nM | 160 nM | 9 nM | Tmax [19]: 8 h; hepatic extraction ratio [1]: 0.48; hepatic extraction ratio [2]: 0.63; AUC(0-inf) [6]: 16000 ng·h/mL; Vd [7]: 4.1 L/kg; Cmax [8]: 7.8 µM; AUC(0-inf) [9]: 477 ng·h/mL; half-life [10]: 1.6 h; clearance [11]: 70 mL/min/kg
13 | Nc1ncc(-c2ccoc2)c2cc(-c3csc4cnccc34)oc12 |  |  |  | 560 nM | 

Continued, in another order:

Row | IC50 [3] | IC50 [4] | IC50 (Aurora kinase B) | IC50 (TAK1/TAB1) | SMILES | further results
14 |  |  |  | 2900 nM | COCC#Cc1cnc(N)c2oc(-c3csc4cnccc34)cc12 | 
15 |  | > 10000 nM |  | 22800 nM | Cn1cc(-c2cnc(N)c3oc(-c4csc5cnccc45)cc23)c(C#N)n1 | 
16 |  |  |  | 1400 nM | Nc1ncc(-c2cscn2)c2cc(-c3csc4cnccc34)oc12 | 
17 | 8200 nM | 130 nM | 6900 nM | 110 nM | Nc1ncc(-c2cnn([C@H]3CC[C@H](O)CC3)c2)c2c(-c3cccnc3)c(-c3cccc4nnsc34)oc12 | hepatic extraction ratio [1]: 0.41; hepatic extraction ratio [2]: 0.48
18 | > 20000 nM | 1700 nM | > 20000 nM | 600 nM | COc1nn(C)cc1-c1cnc(N)c2oc(-c3csc4cnccc34)cc12 | 
19 |  |  |  | 230 nM | Cc1ncc(-c2cnc(N)c3oc(-c4csc5cnccc45)cc23)s1 | 
20 | > 20000 nM | 17 nM | > 10000 nM | 160 nM | N#Cc1c(-c2cccc3nnsc23)oc2c(N)ncc(-c3cnn([C@H]4CC[C@H](O)CC4)c3)c12 | hepatic extraction ratio [1]: 0.38; hepatic extraction ratio [2]: 0.43
21 |  |  |  | 3800 nM | Nc1ncc(-c2cccnc2)c2cc(-c3csc4cnccc34)oc12 | 
22 |  | 4400 nM |  | 23900 nM | Cc1nn(C)c(C)c1-c1cnc(N)c2oc(-c3csc4cnccc34)cc12 | 
23 |  |  |  | 12700 nM | Cn1cnc(-c2cnc(N)c3oc(-c4csc5cnccc45)cc23)c1 | 
24 |  |  |  | 2200 nM | Nc1ncc(-c2ccsc2)c2cc(-c3csc4cnccc34)oc12 | 
25 |  |  |  | 4600 nM | Cc1ccc(-c2cnc(N)c3oc(-c4csc5cnccc45)cc23)s1 | 
26 | 760 nM | 43 nM | 1700 nM | 31 nM | Nc1ncc(-c2cnn([C@H]3CC[C@H](O)CC3)c2)c2c(-c3cncs3)c(-c3cccc4nnsc34)oc12 | hepatic extraction ratio [1]: 0.55; hepatic extraction ratio [2]: 0.53
27 | > 20000 nM | 1000 nM | > 20000 nM | 3500 nM | Cc1nn(C)cc1-c1cnc(N)c2oc(-c3csc4cnccc34)cc12 | 
